Results as given in patent publication US10315996B2, “ROR gamma (RORγ) modulators” (LEAD PHARMA HOLDING B.V., priority 2015, dated 2019).

molecular target: T1, RORγ (Homo sapiens, UniProt P51449); test: RORγ GAL4 reporter gene assay; type: cell-based; settings: inhibition of RORγ activity, GAL4-RORγ-LBD luciferase reporter in 293FT cells, overnight incubation; read-out: mean pIC50 (converted)
T1 construct: expressed in transfected cells; host or cells: 293FT cells (Invitrogen), expression vector pFN26A (Promega)
T1 sequence (P51449 269-508 limits assumed): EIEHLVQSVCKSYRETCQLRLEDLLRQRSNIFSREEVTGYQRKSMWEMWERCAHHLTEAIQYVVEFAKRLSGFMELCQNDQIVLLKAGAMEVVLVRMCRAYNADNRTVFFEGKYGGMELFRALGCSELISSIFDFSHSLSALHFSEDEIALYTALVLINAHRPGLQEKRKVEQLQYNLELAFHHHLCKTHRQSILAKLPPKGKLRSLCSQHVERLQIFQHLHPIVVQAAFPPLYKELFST
Procedure: Example inhibitors 1-166 were tested for their ability to inhibit RORγ activity in a RORγ GAL4 reporter gene assay. The assay procedure and results are described below.
RORγ GAL4 Reporter Gene Assay Description
A GAL4 one-hybrid reporter system employing luciferase readout was established to determine inhibition of RORγ in 293FT cells. The RORγ ligand-binding domain (LBD) was fused to the yeast GAL4 DNA binding domain (DBD) and placed under the control of the human cytomegalovirus (CMV) immediate early promoter, using expression vector pFN26A (Promega) and standard recombinant DNA cloning methods. To serve as a control in the assay, a similar vector was generated in which the GAL4-DBD was fused to Herpes simplex virus protein 16 (VP16), a constitutive transcriptional activator.
To monitor the inhibitory effect of compounds on RORγ, a transcriptional reporter construct was used. The pGL4.35 vector (Promega) contains nine copies of the GAL4 Upstream Activator Sequence (UAS). This sequence drives the transcription of the luciferase reporter gene luc2P in response to binding of a fusion protein containing the GAL4 DNA binding domain, as for example expressed by the GAL4-RORγ-LBD and GAL4-VP16 expression vectors described above. To allow a GAL4 fusion protein to drive the expression of the luciferase reporter, the pGL4.35 expression vector and the appropriate GAL4 fusion protein expression vector were bulk transfected in the 293FT cells using standard transfection techniques.
The day after transfection, cells were plated into 96 well plates, test compound was added and the plates were incubated overnight. Subsequently, the firefly luciferase activity was quantified using luciferase detection reagent and luminescence readout.
Detailed Assay Description
293FT cells (Invitrogen) were transfected with a GAL4 fusion protein expression vector (as described above) and the transcriptional reporter construct (pGL4.35, Promega). 60 μL of TransIT-293 transfection reagent (Mirus Bio) was added drop wise to 1500 μl Opti-MEM I Reduced Serum Medium (Invitrogen) and incubated at room temperature (RT) for 5 to 20 minutes. 1500 μL of this reagent mixture was added to 5 μg of GAL4 fusion protein expression vector and 5 μg of the transcriptional reporter construct, and incubated at RT for 20 minutes.
To harvest 293FT cells from a T75 flask, first the culture medium was taken off the cells. Subsequently, the cells were washed with Phosphate Buffered Saline (PBS) (Lonza), after which the PBS was removed. To dissociate the cells, 1 ml of TrypLE Express (Invitrogen) was added to the flask, followed by incubation at RT until the cells visually started to detach. Cells were collected in 5 mL of assay medium (DMEM culture medium (Lonza), 10% dialyzed FBS (Invitrogen) and Pen/Strep (Lonza)) to achieve a single cell suspension. 10×10^6 cells were spun down and re-suspended in 10 mL of assay medium. Subsequently, the cell suspension was added to the transfection mix tube, and then transferred as a whole to a T75 flask (Greiner), followed by overnight (16-24 hours) incubation at 37° C. and 5% CO2.
For compound screening, the cells were harvested (as described above) and counted. 13×10^6 cells were spun down, the supernatant was aspirated and the cells were re-suspended in 17.3 mL of assay medium obtaining a cell suspension of 0.75×10^6 cells/mL. 80 μL of cell suspension (60,000 cells) was plated per well into a white, flat bottom, tissue culture treated, 96 well screening plates (Greiner).
Test compounds were diluted, starting from a 10 mM dimethylsulfoxide (DMSO) stock solution, to serial dilutions in DMSO at 500× the final test concentration. Subsequently, these solutions were diluted to 5× the final test concentration in two 10-fold-dilution steps in assay medium. The final DMSO concentration of the 5× test compound solution was 1%. […]

`O=C(Cc1ccc(S(=O)(=O)CC2CC2)cc1)Nc1ccc(C(=O)N(c2ccccc2)c2ccc(Br)cc2)cc1` [Example 115, N-(4-bromophenyl)-4-[2-(4-cyclopropylmethanesulfonylphenyl)acetamido]-N-phenylbenzamide] and `O=C(Cc1ccc(S(=O)(=O)CC2CC2)cc1)Nc1ccc(C(=O)N(c2ccccc2)C2CC2)cc1` [Example 140, N-cyclopropyl-4-[2-(4-cyclopropylmethanesulfonylphenyl)acetamido]-N-phenylbenzamide] cannot be ordered by IC50: at most 100 nM for the first, at most 10 nM for the second.

`CCN(C(=O)c1ccc(NC(=O)Cc2ccc(S(=O)(=O)CC3CC3)cc2)cc1)c1cc(C)nn1C` [Example 88, 4-[2-(4-cyclopropylmethanesulfonylphenyl)acetamido]-N-(1,3-dimethyl-1H-pyrazol-5-yl)-N-ethylbenzamide] and `CCN(C(=O)c1ccc(NC(=O)Cc2ccc(S(=O)(=O)CC3CC3)cc2)cc1)c1cc(C)on1` [Example 89, 4-[2-(4-cyclopropylmethanesulfonylphenyl)acetamido]-N-ethyl-N-(5-methyl-1,2-oxazol-3-yl)benzamide] cannot be ordered by IC50: at most 10 nM for the first, at most 10 nM for the second.

`CCN(C(=O)c1ccc(NC(=O)Cc2ccc(S(=O)(=O)CC3CC3)cc2)c(F)c1)c1ccccc1` [Example 102, 4-[2-(4-cyclopropylmethanesulfonylphenyl)acetamido]-N-ethyl-3-fluoro-N-phenylbenzamide] and `CCN(C(=O)c1ccc(NC(=O)Cc2ccc(S(=O)(=O)CC3CC3)cc2)cc1F)c1ccccc1` [Example 99, 4-[2-(4-cyclopropylmethanesulfonylphenyl)acetamido]-N-ethyl-2-fluoro-N-phenylbenzamide] cannot be ordered by IC50: at most 10 nM for the first, at most 10 nM for the second.

`O=C(Cc1ccc(S(=O)(=O)CC2CC2)cc1)Nc1ccc(C(=O)N(Cc2ccccc2)Cc2ccccc2)cc1` [Example 12, N,N-dibenzyl-4-[2-(4-cyclopropylmethanesulfonylphenyl)acetamido]benzamide] and `O=C(Cc1ccc(S(=O)(=O)CC2CC2)cc1)Nc1ccc(C(=O)N(CC(F)(F)F)c2ccccc2)cc1` [Example 104, 4-[2-(4-cyclopropylmethanesulfonylphenyl)acetamido]-N-phenyl-N-(2,2,2-trifluoroethyl)benzamide] cannot be ordered by IC50: at most 100 nM for the first, at most 10 nM for the second.

`CCN(C(=O)c1ccc(NC(=O)Cc2ccc(S(=O)(=O)NC3CC3)cc2)cc1)c1nnc(C)s1` [Example 97, 4-{2-[4-(cyclopropylsulfamoyl)phenyl]acetamido}-N-ethyl-N-(5-methyl-1,3,4-thiadiazol-2-yl)benzamide] and `CCN(C(=O)c1ccc(NC(=O)Cc2ccc(S(=O)(=O)NC3CC3)cc2)cc1)c1cc(C)no1` [Example 95, 4-{2-[4-(cyclopropylsulfamoyl)phenyl]acetamido}-N-ethyl-N-(3-methyl-1,2-oxazol-5-yl)benzamide] cannot be ordered by IC50: at most 1000 nM for the first, at most 100 nM for the second.

`CC(C)(C)NC(=O)c1ccc(NC(=O)Cc2ccc(S(=O)(=O)CC3CC3)cc2)cc1` [Example 11, N-tert-butyl-4-[2-(4-cyclopropylmethanesulfonylphenyl)acetamido]benzamide] and `CN(C(=O)c1ccc(NC(=O)Cc2ccc(S(=O)(=O)CC3CC3)cc2)cc1)C(C)(C)C` [Example 26, N-tert-butyl-4-[2-(4-cyclopropylmethanesulfonylphenyl)acetamido]-N-methylbenzamide] cannot be ordered by IC50: at most 1000 nM for the first, at most 1000 nM for the second.

`Cc1ccc(N(C(=O)c2ccc(NC(=O)Cc3ccc(S(=O)(=O)NC4CC4)cc3)cc2)C(C)(C)C2CCCO2)cc1` (centres unmarked) [Example 132, 4-{2-[4-(cyclopropylsulfamoyl)phenyl]acetamido}-N-(4-methylphenyl)-N-[2-(oxolan-2-yl)propan-2-yl]benzamide] and `Cc1ccc(N(C(=O)c2ccc(NC(=O)Cc3ccc(S(=O)(=O)CC4CC4)cc3)cc2)C(C)(C)C2CCCO2)cc1` (centres unmarked) [Example 133, 4-[2-(4-cyclopropylmethanesulfonylphenyl)acetamido]-N-(4-methylphenyl)-N-[2-(oxolan-2-yl)propan-2-yl]benzamide] cannot be ordered by IC50: at most 100 nM for the first, at most 100 nM for the second.

`CCN(C(=O)c1ccc(NC(=O)Cc2ccc(S(=O)(=O)CC3CC3)nc2)cc1Cl)c1ccccc1` [Example 157, 2-chloro-4-[2-(6-cyclopropylmethanesulfonylpyridin-3-yl)acetamido]-N-ethyl-N-phenylbenzamide] and `CCN(C(=O)c1ccc(NC(=O)Cc2ccc(S(=O)(=O)CC3CC3)cc2)cc1C)c1ccccc1` [Example 162, 4-[2-(4-cyclopropylmethanesulfonylphenyl)acetamido]-N-ethyl-2-methyl-N-phenylbenzamide] cannot be ordered by IC50: at most 100 nM for the first, at most 100 nM for the second.

`CN(C(=O)c1ccc(NC(=O)Cc2ccc(S(=O)(=O)CC3CC3)cc2)cc1Cl)c1ccccn1` [Example 67, 2-chloro-4-[2-(4-cyclopropylmethanesulfonylphenyl)acetamido]-N-methyl-N-(pyridin-2-yl)benzamide] and `CCN(C(=O)c1ccc(NC(=O)Cc2ccc(S(=O)(=O)CC3CC3)cc2)cc1)c1cccc(C)c1` [Example 31, 4-[2-(4-cyclopropylmethanesulfonylphenyl)acetamido]-N-ethyl-N-(3-methylphenyl)benzamide] cannot be ordered by IC50: at most 1000 nM for the first, at most 10 nM for the second.

`O=C(Cc1ccc(S(=O)(=O)CC2CC2)cc1)Nc1ccc(C(=O)N2CCCCC2CN2CCOCC2)cc1` (centres unmarked) [Example 39, 2-(4-cyclopropylmethanesulfonylphenyl)-N-{4-[2-(morpholin-4-ylmethyl)piperidine-1-carbonyl]phenyl}acetamide] and `CC1CCCCN1C(=O)c1ccc(NC(=O)Cc2ccc(S(=O)(=O)CC3CC3)cc2)cc1` (centres unmarked) [Example 28, 2-(4-cyclopropylmethanesulfonylphenyl)-N-[4-(2-methylpiperidine-1-carbonyl)phenyl]acetamide] cannot be ordered by IC50: at most 1000 nM for the first, at most 1000 nM for the second.

`CCCN(C(=O)c1ccc(NC(=O)Cc2ccc(S(=O)(=O)CC3CC3)cc2)cc1)c1nccs1` [Example 83, 4-[2-(4-cyclopropylmethanesulfonylphenyl)acetamido]-N-propyl-N-(1,3-thiazol-2-yl)benzamide] and `CCCN(C(=O)c1ccc(NC(=O)Cc2ccc(S(=O)(=O)CC3CC3)cc2)cc1)c1cccnc1` [Example 20, 4-[2-(4-cyclopropylmethanesulfonylphenyl)acetamido]-N-propyl-N-(pyridin-3-yl)benzamide] cannot be ordered by IC50: at most 10 nM for the first, at most 10 nM for the second.

`CC(C)[C@@H](NC(=O)c1ccc(NC(=O)Cc2ccc(S(=O)(=O)CC3CC3)cc2)cc1)C(F)(F)F` [Example 69, 4-[2-(4-cyclopropylmethanesulfonylphenyl)acetamido]-N-[(2R)-1,1,1-trifluoro-3-methylbutan-2-yl]benzamide] and `CCNC(=O)c1ccc(NC(=O)Cc2ccc(S(=O)(=O)CC3CC3)cc2)cc1` [Example 2, 4-[2-(4-cyclopropylmethanesulfonylphenyl)acetamido]-N-ethylbenzamide] cannot be ordered by IC50: at most 1000 nM for the first, at most 1000 nM for the second.

`CCCN(C(=O)c1ccc(NC(=O)Cc2ccc(S(=O)(=O)CC3CC3)cc2)cc1)c1cc(C)on1` [Example 87, 4-[2-(4-cyclopropylmethanesulfonylphenyl)acetamido]-N-(5-methyl-1,2-oxazol-3-yl)-N-propylbenzamide] and `CCN(Cc1cc(C)on1)C(=O)c1ccc(NC(=O)Cc2ccc(S(=O)(=O)CC3CC3)cc2)cc1` [Example 56, 4-[2-(4-cyclopropylmethanesulfonylphenyl)acetamido]-N-ethyl-N-[(5-methyl-1,2-oxazol-3-yl)methyl]benzamide] cannot be ordered by IC50: at most 10 nM for the first, at most 100 nM for the second.
